Results reported in PMC6009937, “Comparing hydrazine-derived reactive groups as inhibitors of quinone-dependent amine oxidases” (Journal of Enzyme Inhibition and Medicinal Chemistry, 2017).
Where “and” joins values, the source holds several entries; their conditions need not be identical. Equal entries are not always repeated. Where two headings read alike, the source gives them in different places.

How the values were obtained:
[1] = molecular target: T1, Lysyl oxidase (LOX) (Bos taurus, UniProt P33072); experiment: LOX activity assay (Amplex UltraRed/HRP fluorescence) after preincubation of enzyme with inhibitor; type: biochemical, bovine; conditions: for IC50 / Selectivity factor (LOX IC50 value divided by LSDAO IC50 value): 10-min preincubation; for IC50: 37 °C, read-out: IC50 LOX; for Selectivity factor (LOX IC50 value divided by LSDAO IC50 value): LOX vs LSDAO; for remaining activity at 40 µM: 40 µM inhibitor; for remaining activity at 40 µM / remaining activity at 100 µM / remaining activity at 500 µM / remaining activity at 4 µM / remaining activity at 7 µM / remaining activity at 20 µM: read-out: Average Percent Activity Remaining, LOX; for remaining activity at 100 µM: 100 µM inhibitor; for remaining activity at 500 µM: 500 µM inhibitor; for LOX k2 (range) / KI (inactivation): Kitz-Wilson analysis; for LOX k2 (range): rate constant for irreversible reaction; for KI (inactivation): reversible binding constant, read-out: LOX KI^-1 (range); for remaining activity at 4 µM: 4 µM inhibitor; for remaining activity at 7 µM: 7 µM inhibitor; for remaining activity at 20 µM: 20 µM inhibitor
T1 construct: LOX was isolated from bovine aorta; from tissue; host or cells: bovine aorta
T1 sequence (P33072 170-418): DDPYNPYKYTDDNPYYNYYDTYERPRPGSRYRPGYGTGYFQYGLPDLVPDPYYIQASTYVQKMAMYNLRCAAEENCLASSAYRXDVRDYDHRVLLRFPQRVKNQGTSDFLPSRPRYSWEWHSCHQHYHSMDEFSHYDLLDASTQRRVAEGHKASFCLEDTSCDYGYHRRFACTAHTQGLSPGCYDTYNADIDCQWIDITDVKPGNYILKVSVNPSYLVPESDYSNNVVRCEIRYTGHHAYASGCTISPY
Procedure: LOX was isolated from bovine aorta at 4 °C using slight modifications of previously published procedures. All steps were carried out at in 16 mM phosphate, pH 7.8 (buffer B). After blending the aorta in buffer B containing 400 mM NaCl and 1 mM EDTA to remove soluble contaminants, the enzyme was extracted with buffer B containing 4 M urea and 1 mM EDTA. The crude enzyme extract was filtered, diluted with an equal volume of buffer B to obtain a urea concentration of 2 M, and loaded onto a DEAE column. After washing with buffer B containing 400 mM NaCl, the enzyme was eluted with buffer B containing 400 mM NaCl and 6 M urea. The urea concentration was reduced to 4 M by adding buffer B, and the solution was added to a slurry of ceramic hydroxyapatite in buffer B containing 4 M urea. After stirring, the supernatant was removed by filtration and dialyzed overnight against buffer B. The solution was added to a slurry of ceramic hydroxyapatite in buffer B, washed with small portions of 1 M phosphate and then buffer B, and then eluted with buffer B containing 6 M urea and 500 mM NaCl. After concentration to about 20 mL, the protein was applied to a Sephacryl S-200 gel filtration column preequilibrated with buffer B containing 50 mM NaCl, 1 mM EDTA, and 6 M urea and eluted with the same buffer. Active fractions were concentrated to 1 mL. Total protein concentration for 6 M urea solutions[33] was determined by its absorption at 280 nm using a molar extinction coefficient of 8.39 × 10^4 M^−1 cm ^−1.
(§1) The activity assay is adopted from the method described by Palamakumbura et al.[35]. Enzyme and inhibitor were incubated at 37 °C for the desired inhibition time, diluted into the assay mixture, and analyzed by fluorescence (Agilent Technologies Cary Eclipse Fluorescence Spectrometer, Cary Eclipse Software, 37 °C, λex = 568 and λem = 581 nm). The assay was carried out in boric acid buffer (50 mM, pH 8.2) with 1.2 M urea for LOX or in phosphate buffer (0.1 M, pH = 7.0) for LSDAO. The final reagent concentrations in the assay mixture were 10 mM cadaverine, 10 μM Amplex UltraRed (Life Technologies, Carlsbad, CA), and 1 U/mL horse radish peroxidase (Amresco, Solon, OH).
(§2) The enzyme activity, which is proportional to the rate of increase in fluorescence, was measured for each experiment. Residual activity was calculated by dividing each rate by a maximum rate determined in the absence of inhibitor such that [residual activity] = ([rate with inhibitor] – [baseline rate])/([maximum rate] – [baseline rate]). […] The residual activities from replicate experiments were averaged. For each inhibitor concentration, log([average residual activity]) was plotted against inhibition time. Linear lines of best fit forced through the origin were calculated for each data set using Graphpad Prism 5.0b (La Jolla, CA). For each inhibitor, the slopes of these lines (min^−1) were plotted as –1/slope against 1/[inhibitor concentration] to produce a Kitz–Wilson plot.
(§3) To quantify the selectivity of each inhibitor, we defined a numerical “selectivity factor” as the inhibitor's IC50 value for LOX divided by its IC50 value for LSDAO (Figure 3(C)).

[2] = molecular target: T2, lentil seedling diamine oxidase (LSDAO) (Lens culinaris, UniProt P49252); experiment: LSDAO activity assay (Amplex UltraRed/HRP fluorescence) after preincubation of enzyme with inhibitor; type: biochemical
T2 construct: Eight-day-old lentil seedlings (Lens esculenta) were blended and extracted; from tissue; host or cells: eight-day-old lentil seedlings (Lens esculenta)
T2 sequence (P49252 19-667): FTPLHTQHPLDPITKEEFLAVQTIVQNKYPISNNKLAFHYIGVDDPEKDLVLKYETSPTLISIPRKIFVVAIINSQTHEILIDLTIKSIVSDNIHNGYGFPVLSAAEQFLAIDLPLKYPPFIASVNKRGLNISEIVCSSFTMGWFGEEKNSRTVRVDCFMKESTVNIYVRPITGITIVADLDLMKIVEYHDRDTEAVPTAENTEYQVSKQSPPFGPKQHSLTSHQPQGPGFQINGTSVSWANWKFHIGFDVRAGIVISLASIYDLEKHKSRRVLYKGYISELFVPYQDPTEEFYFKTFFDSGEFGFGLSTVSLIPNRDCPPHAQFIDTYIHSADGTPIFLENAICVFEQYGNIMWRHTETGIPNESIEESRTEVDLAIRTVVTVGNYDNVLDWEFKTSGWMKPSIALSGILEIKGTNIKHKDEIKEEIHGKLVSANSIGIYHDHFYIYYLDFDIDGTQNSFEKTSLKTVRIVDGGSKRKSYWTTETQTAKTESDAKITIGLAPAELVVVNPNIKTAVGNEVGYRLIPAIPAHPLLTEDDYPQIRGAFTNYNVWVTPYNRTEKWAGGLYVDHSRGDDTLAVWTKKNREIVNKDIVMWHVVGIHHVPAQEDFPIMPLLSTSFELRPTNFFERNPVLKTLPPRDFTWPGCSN
Procedure: The LSDAO extraction process was carried out at 4 °C according to the method of Floris et al.[30] with slight modifications. Eight-day-old lentil seedlings (Lens esculenta) were blended and extracted with phosphate buffer (5 mM, pH 6.0, buffer A). Ammonium sulfate (230 g/L, 40% saturation) was used to precipitate contaminants, and then additional ammonium sulfate (125 g/L, 60% saturation) was used to precipitate the LSDAO. The crude precipitate was redissolved, dialyzed against buffer A, applied to a DEAE column, and eluted with buffer A. Active fractions were adjusted to pH 6.5, applied to a CM resin column, and eluted with 5 mM phosphate buffer, pH 6.5. Active fractions were concentrated and the buffer was changed to 10 mM phosphate, pH 7.0 before the protein was applied to a Sephacryl S-300 column and eluted with the same buffer. The concentration of the LSDAO dimer was determined from its absorption at 278 nm in 0.1 M phosphate buffer[31] using a molar extinction coefficient of 2.45 × 10^5 M^−1 cm^−1.
as §1, §2, §3
From the slopes and y-intercepts of these lines, the kinetic parameters KI (the reversible binding constant) and k2 (the rate constant for irreversible reaction) (Figure 5(A)) can be calculated.

[3] = 10-min preincubation, 37 °C; read-out: IC50 LSDAO
[4] = 4 min, read-out: Average Percent Activity Remaining, LSDAO
[5] = 10 min, read-out: Average Percent Activity Remaining, LSDAO
[6] = Kitz-Wilson analysis, rate constant for irreversible reaction
[7] = Kitz-Wilson analysis, reversible binding constant; read-out: LSDAO KI^-1 (range)

Structure (SMILES)	IC50 [1]	Selectivity factor (LOX IC50 value divided by LSDAO IC50 value) [1]	remaining activity at 100 µM ([1]; 4 min)	remaining activity at 500 µM ([1]; 4 min)	remaining activity at 100 µM ([1]; 10 min)	LOX k2 (range) [1]	KI (inactivation) [1]	IC50 [2, 3]	remaining activity at 1 µM [2, 4]	remaining activity at 2 µM [2, 4]	remaining activity at 4 µM [2, 4]	remaining activity at 20 µM [2, 4]	remaining activity at 1 µM [2, 5]	remaining activity at 2 µM [2, 5]	remaining activity at 4 µM [2, 5]	remaining activity at 20 µM [2, 5]	LSDAO k2 (range) [2, 6]	KI (inactivation) [2, 7]	remaining activity at 7 µM ([1]; 4 min)	remaining activity at 20 µM ([1]; 4 min)	also measured
CCCCNC(=O)NN [compound 5]	100 µM	25	76%	35%	52%	> 0.50 min⁻¹	> 1000 µM	4000 nM	89%	78%	69%	41%	84%	71%	50%	7%	0.91 (0.50–5.0) min^-1 and 0.91 min^-1	112 µM			remaining activity at 40 µM ([1]; 4 min): 93%; remaining activity at 40 µM ([1]; 10 min): 78%; remaining activity at 500 µM ([1]; 10 min): 6%; remaining activity at 100 µM [2, 4]: 1%
CCCCCC(=O)NN [compound 3]	20 µM	10	27%	8%	3%	0.40 (0.23–1.4) min^-1 and 0.4 min^-1 and 0.40 min^-1	200 µM	2000 nM	90%	80%	71%	33%	76%	52%	33%	4%	0.67 (0.37–3.3) min^-1 and 0.7 min^-1 and 0.67 min^-1	50 µM and 54 µM	78%	69%	remaining activity at 4 µM ([1]; 4 min): 93%; remaining activity at 4 µM ([1]; 10 min): 84%; remaining activity at 7 µM ([1]; 10 min): 75%; remaining activity at 20 µM ([1]; 10 min): 48%; fold lower affinity for LOX than phenylhydrazine ([1]; compared to phenylhydrazine): 3 fold; remaining activity at 8 µM [2, 4]: 54%; remaining activity at 14 µM [2, 4]: 40%; remaining activity at 40 µM [2, 4]: 4%; remaining activity at 500 µM [2, 4]: 0.7%; remaining activity at 8 µM [2, 5]: 13%; remaining activity at 14 µM [2, 5]: 8%
CCCCCCCNN [compound 4]	40 µM	1300	59%		30%	0.079 (0.073–0.087) min^-1 and 0.07–0.09 min^-1 and 0.079 min^-1	57 µM		1%								1.0 (0.75–1.6) min^-1 and 1.0 min^-1		89%	82%	remaining activity at 7 µM ([1]; 10 min): 83%; remaining activity at 20 µM ([1]; 10 min): 63%; IC50 [2]: 30 nM; remaining activity at 0.03 µM [2, 4]: 81%; remaining activity at 0.08 µM [2, 4]: 60%; remaining activity at 0.1 µM [2, 4]: 43%; remaining activity at 0.2 µM [2, 4]: 22%; remaining activity at 0.5 µM [2, 4]: 1%; remaining activity at 0.03 µM [2, 5]: 45%; remaining activity at 0.08 µM [2, 5]: 15%; remaining activity at 0.1 µM [2, 5]: 7%; remaining activity at 0.2 µM [2, 5]: 2%; KI (inactivation) ([2]; read-out: LSDAO KI^-1 (range); Kitz-Wilson analysis, reversible binding constant): 0.9 µM
